Among the data in patent US7265152B2 (ViroPharma Incorporated, priority 2002, dated 2007) are IC50 and EC50 values, retold here.

Read-outs that look alike come from different tables or passages of the source.

One test concerns the target T1, HCV NS5B (Hepatitis C virus genotype 1b, UniProt Q9WMX2).
T1 construct: fusion protein, of which the carboxyl terminal 21 amino acids were removed to enhance its solubility; His tag (GSHHHHHH); made in house; host or cells: E. coli
Put plainly: Inhibition of viral RNA-dependent RNA polymerase (RdRp), in vitro biochemical assay. On the set-up: species or system HCV genotype 1b virus (BB7). The conditions noted are these: BB7 (genotype 1b), read-out: HCV pol-BB7 IC50. An outline of the steps: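 Purified recombinant NS5B from a genotype 1b consensus (BB7), His-tagged, E. coli-expressed, with the C-terminal 21 residues deleted. Inhibition of RdRp activity in vitro was measured, and IC50 is the concentration giving 50% inhibition.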

The test system of test [1] is HCV replicon (BB7 sequence) in Huh-7-Clone A cells. Put plainly: HCV replicon assay: ELISA of NS5A protein in replicon-containing cells (Inhibition of Viral RNA Replication). In kind it is cell-based. The conditions noted are these: HCV replicon assay, read-out: Replicon. An outline of the steps:
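Huh-7-Clone A cells carrying subgenomic BB7 HCV replicon (G418-selectable) incubated 72 h with compound. NS5A protein quantified by cell ELISA: glutaraldehyde fixation, anti-NS5A monoclonal plus HRP secondary, TMB read at OD 650 nm. EC50 derived from 8-point serial dilution dose curve.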

Setting [2] is: HCV NS5B polymerase, values given as range classes A-D.
[3] abbreviates: Hepatitis C virus, ranges of 50% effective concentration (EC50).
Where [4] appears, read: HCV NS5B RdRp, reported as class symbols.
[5] abbreviates: Hepatitis C virus, ranges of EC50.

On to `CNC(=O)c1c(-c2ccc(F)cc2)oc2cc(N(C)S(C)(=O)=O)c(OCC(=O)Nc3nccs3)cc12` [Example 415, 2-(4-Fluoro-phenyl)-6-(methanesulfonyl-methyl-amino)-5-(thiazol-2-ylcarbamoylmethoxy)-benzofuran-3-carboxylic acid methylamide], for which the IC50 on HCV NS5B (setting [2]) is no more than 500 nM. Also, the EC50 in test [1] (setting [3]) is less than 1000 nM.
As for `CNC(=O)c1c(-c2ccc(F)cc2)oc2cc(N(C)S(C)(=O)=O)c(OCC(=O)Nc3nncs3)cc12` [Example 416, 2-(4-Fluoro-phenyl)-6-(methanesulfonyl-methyl-amino)-5-([1,3,4]thiadiazol-2-ylcarbamoylmethoxy)-benzofuran-3-carboxylic acid methylamide], the IC50 at HCV NS5B (setting [2]) was no more than 500 nM. The EC50 in test [1] (setting [3]) was less than 1000 nM.
The matching figures for `CNC(=O)c1c(-c2ccc(F)cc2)oc2cc(N(C)S(C)(=O)=O)c(OCC(=O)Nc3nc(C)c(C)s3)cc12` [Example 417, 5-[(4,5-Dimethyl-thiazol-2-ylcarbamoyl)-methoxy]-2-(4-fluoro-phenyl)-6-(methanesulfonyl-methyl-amino)-benzofuran-3-carboxylic acid methylamide]: no more than 500 nM and less than 1000 nM.
Turning to `CNC(=O)c1c(-c2ccc(F)cc2)oc2cc(NS(C)(=O)=O)c(C3CC3)cc12` [Example 418, 5-Cyclopropyl-2-(4-fluoro-phenyl)-6-methanesulfonylamino-benzofuran-3-carboxylic acid methylamide], the IC50 at HCV NS5B (setting [2]) was no more than 500 nM. Further, the EC50 in test [1] (setting [3]) is less than 1000 nM.
Consider `CNC(=O)c1c(-c2ccc(F)cc2)oc2cc(-c3c(C)noc3C)c(OCCN3CCC(C#N)CC3)cc12` [Example 419, 5-[2-(4-Cyano-piperidin-1-yl)-ethoxy]-6-(3,5-dimethyl-isoxazol-4-yl)-2-(4-fluoro-phenyl)-benzofuran-3-carboxylic acid methylamide], for which, at HCV NS5B (setting [2]), the IC50 was no more than 500 nM. Besides, in test [1] (setting [3]), the EC50 is less than 1000 nM.
For `CNC(=O)c1c(-c2ccc(F)cc2)oc2cc(NS(C)(=O)=O)c(-c3cccs3)cc12` [Example 420, 2-(4-Fluoro-phenyl)-6-methanesulfonylamino-5-thiophen-2-yl-benzofuran-3-carboxylic acid methylamide], the IC50 at HCV NS5B (setting [2]) is no more than 500 nM. In test [1] (setting [3]), the EC50 was less than 1000 nM.
Regarding `CNC(=O)COc1cc2c(C(=O)NC)c(-c3ccc(F)cc3)oc2cc1N(C)S(C)(=O)=O` [Example 421, 2-(4-Fluoro-phenyl)-6-(methanesulfonyl-methyl-amino)-5-methylcarbamoyl-methoxy-benzofuran-3-carboxylic acid methylamide], on HCV NS5B (setting [2]), the IC50 was no more than 500 nM. The EC50 in test [1] (ranges of 50% effective concentration (EC50)) is less than 1000 nM.
With `CNC(=O)c1c(-c2ccc(F)cc2)oc2cc(N(CC3(CO)CC3)S(C)(=O)=O)c(OCC3(CO)CC3)cc12` [Example 422, 2-(4-Fluoro-phenyl)-5-(1-hydroxymethyl-cyclopropylmethoxy)-6-[(1-hydroxymethyl-cyclopropylmethyl)-methanesulfonyl-amino]-benzofuran-3-carboxylic acid methylamide], the IC50 at HCV NS5B (setting [2]) fell in the range of 500 to 5000 nM. Further, the EC50 in test [1] (setting [3]) was less than 10000 nM.
Taken in the same sequence, the figures for `CCOc1cc2c(C(=O)NC)c(-c3ccc(F)cc3)oc2cc1N(CC)CC` [Example 423, 6-Diethylamino-5-ethoxy-2-(4-fluoro-phenyl)-benzofuran-3-carboxylic acid methylamide] were no more than 500 nM and less than 1000 nM.
As for `CNC(=O)c1c(-c2ccc(F)cc2)oc2cc(N(C)S(C)(=O)=O)c(OCC(N)=O)cc12` [Example 424, 5-Carbamoylmethoxy-2-(4-fluoro-phenyl)-6-(methanesulfonyl-methyl-amino)-benzofuran-3-carboxylic acid methylamide], the IC50 on HCV NS5B (setting [2]) was no more than 500 nM. In test [1] (setting [3]), the EC50 is less than 1000 nM.
With `CNC(=O)c1c(-c2ccc(F)cc2)oc2cc(N(C)S(C)(=O)=O)c(OCCn3nc(C)cc3C)cc12` [Example 425, 5-[2-(3,5-Dimethyl-pyrazol-1-yl)-ethoxy]-2-(4-fluoro-phenyl)-6-(methanesulfonyl-methyl-amino)-benzofuran-3-carboxylic acid methylamide], the IC50 at HCV NS5B (setting [2]) is no more than 500 nM. In test [1] (setting [3]), the EC50 is less than 1000 nM.
Consider `CNC(=O)c1c(-c2ccc(F)cc2)oc2cc(NS(C)(=O)=O)c(-c3ccco3)cc12` [Example 426, 2-(4-Fluoro-phenyl)-5-furan-2-yl-6-methanesulfonylamino-benzofuran-3-carboxylic acid methylamide], for which the IC50 on HCV NS5B (setting [2]) was no more than 500 nM. Besides, the EC50 in test [1] (setting [3]) is less than 1000 nM.
The matching figures for `CNC(=O)c1c(-c2ccc(F)cc2)oc2cc(-c3c(C)noc3C)c(OCc3nnnn3C)cc12` [Example 427, 6-(3,5-Dimethyl-isoxazol-4-yl)-2-(4-fluoro-phenyl)-5-(1-methyl-1H-tetrazol-5-ylmethoxy)-benzofuran-3-carboxylic acid methylamide]: no more than 500 nM and less than 1000 nM.
Take `CNC(=O)c1c(-c2ccc(F)cc2)oc2cc(-c3c(C)noc3C)c(OCC3CC3)cc12` [Example 428, 5-Cyclopropylmethoxy-6-(3,5-dimethyl-isoxazol-4-yl)-2-(4-fluoro-phenyl)-benzofuran-3-carboxylic acid methylamide]: the IC50 on HCV NS5B (setting [2]) was no more than 500 nM. Further, in test [1] (setting [3]), the EC50 is less than 1000 nM.
As for `CNC(=O)c1c(-c2ccc(F)cc2)oc2cc(-c3c(C)noc3C)c(OCc3c(C)noc3C)cc12` [Example 429, 6-(3,5-Dimethyl-isoxazol-4-yl)-5-(3,5-dimethyl-isoxazol-4-ylmethoxy)-2-(4-fluoro-phenyl)-benzofuran-3-carboxylic acid methylamide], the IC50 at HCV NS5B (setting [2]) was no more than 500 nM. In test [1] (setting [3]), the EC50 is less than 1000 nM.
`CNC(=O)c1c(-c2ccc(F)cc2)oc2ccc(OCc3cscn3)cc12` [Example 435, 2-(4-Fluoro-phenyl)-5-(thiazol-4-ylmethoxy)-benzofuran-3-carboxylic acid methylamide]: the 50% inhibitory concentration (IC50) at HCV NS5B (setting [2]) fell in the range of 500 to 5000 nM. Moreover, the EC50 in test [1] (setting [3]) was greater than 30000 nM.
With `CNC(=O)c1c(-c2ccc(F)cc2)oc2cc(C(=O)CO)c(OC)cc12` [Example 436, 2-(4-Fluoro-phenyl)-6-(2-hydroxy-acetyl)-5-methoxy-benzofuran-3-carboxylic acid methylamide], the IC50 on HCV NS5B (setting [2]) is no more than 500 nM. The EC50 in test [1] (setting [3]) was less than 10000 nM.
For the compound `CNC(=O)c1c(-c2ccc(F)cc2)oc2cc(N(C)S(C)(=O)=O)c(C3CC3)cc12` [Example 437, 5-Cyclopropyl-2-(4-fluoro-phenyl)-6-(methanesulfonyl-methyl-amino)-benzofuran-3-carboxylic acid methylamide], the IC50 at HCV NS5B (setting [4]) was no more than 500 nM. For the same compound, the EC50 in test [1] (setting [5]) was less than 1000 nM.
`CNC(=O)c1c(-c2ccc(F)cc2)oc2cc(NS(C)(=O)=O)c(C3CCCO3)cc12` (centres unmarked) [Example 441, 2-(4-Fluoro-phenyl)-6-methanesulfonylamino-5-(tetrahydro-furan-2-yl)-benzofuran-3-carboxylic acid methylamide]: the IC50 on HCV NS5B (setting [4]) is no more than 500 nM. Besides, the EC50 in test [1] (setting [5]) was less than 1000 nM.
Turning to `CNC(=O)c1c(-c2ccc(F)cc2)oc2cc(C3CCOC3)c(OC)cc12` (centres unmarked) [Example 442, 2-(4-Fluoro-phenyl)-5-methoxy-6-(tetrahydro-furan-3-yl)-benzofuran-3-carboxylic acid methylamide], on HCV NS5B (setting [4]), the IC50 is no more than 500 nM. For the same compound, the EC50 in test [1] (setting [5]) was less than 1000 nM.
On to `CCCOc1cc2c(C(=O)NC)c(-c3ccc(F)cc3)oc2cc1N(COC)S(C)(=O)=O` [Example 443, 2-(4-Fluoro-phenyl)-6-(methanesulfonyl-methoxymethyl-amino)-5-propoxy-benzofuran-3-carboxylic acid methylamide], for which, on HCV NS5B (setting [4]), the IC50 was no more than 500 nM. In test [1] (setting [5]), the EC50 was less than 1000 nM.
As to `CNC(=O)c1c(-c2ccc(F)cc2)oc2cc(N(COC)S(C)(=O)=O)c(O)cc12` [Example 444, 2-(4-Fluoro-phenyl)-5-hydroxy-6-(methanesulfonyl-methoxymethyl-amino)-benzofuran-3-carboxylic acid methylamide], the IC50 on HCV NS5B (setting [4]) is no more than 500 nM. For the same compound, in test [1] (setting [5]), the EC50 is less than 10000 nM.
Turning to `CCCOc1cc2c(C(=O)NC)c(-c3ccc(F)cc3)oc2cc1NS(C)(=O)=O` [Example 445, 2-(4-Fluoro-phenyl)-6-methanesulfonylamino-5-propoxy-benzofuran-3-carboxylic acid methylamide], the IC50 on HCV NS5B (setting [4]) was no more than 500 nM. For the same compound, in test [1] (setting [5]), the EC50 is less than 1000 nM.
Consider `CNC(=O)c1c(-c2ccc(F)cc2)oc2cc(N(COC)S(C)(=O)=O)c(OCc3ccc(C#N)cc3)cc12` [Example 446, 5-(4-Cyano-benzyloxy)-2-(4-fluoro-phenyl)-6-(methanesulfonyl-methoxymethyl-amino)-benzofuran-3-carboxylic acid methylamide], for which the IC50 on HCV NS5B (setting [4]) was no more than 500 nM. In addition, the EC50 in test [1] (setting [5]) was less than 1000 nM.
Turning to `CNC(=O)c1c(-c2ccccc2)oc2ccc(OC)cc12` [Example 452, 5-Methoxy-2-phenyl-benzofuran-3-carboxylic acid methylamide], the IC50 at HCV NS5B (setting [4]) was no more than 500 nM. The EC50 in test [1] (setting [5]) is greater than 10000 nM.

One may read the IC50 as the concentration needed to halve the response being measured.
